Assay [1] concerns U87MG cells. Nature of the assay: TMZ dose response, MTT cell viability assay, U87MG. The arrangement: AUC (area under dose response curve): unit not given beside the values.
The subject of assay [2] is NSP cells (neurospheres derived from U87MG). Nature of the assay: TMZ dose response, MTT cell viability assay, neurospheres (NSP). The arrangement: AUC (area under dose response curve): unit not given beside the values.
The test system of assay [3] is differentiated cells (NDx) of NSP. As to the kind of experiment: TMZ dose response of differentiated NSP cells (NDx). As to conditions: Homo sapiens.
Method: For dose-response experiments, four replicates at ˜20,000 cells per well were plated in 96-well Nunc™ tissue culture plates in full growth medium for 24 h, treated with different doses of TMZ in serial dilutions (0.05Me5M) followed by cell viability tests using the MTT assay. Appropriate cell controls (without TMZ treatment) were used to calculate IC50.

For the compound `Cn1nnc2c(C(N)=O)ncn2c1=O` [Temozolomide], the IC50 in assay [1] (Homo sapiens, U-87 MG) worked out at 746 µM; in assay [2] (Homo sapiens, U-87 MG), 1040 µM; in assay [3], 818 µM. The “AUC (area under dose response curve)” value in assay [1] (U87MG) is 53039; in assay [2] (Neurospheres (NSP)), 276836. Further, the results for the Emax in assay [1] (U87MG) and in assay [2] (Neurospheres (NSP)) were 25.53 and 49.29, respectively. In addition, the entries for the “Log2 (Hill Slope)” value in assay [1] (U87MG) and in assay [2] (Neurospheres (NSP)) were −1.959 and 0, respectively. The fold resistance ratio in assay [2] (NSP relative to U87MG) is on record as 1.41.

The values are drawn from patent US20200190470A1, “TEMOZOLOMIDE RESISTANT CELLS AND AN INTEGRATED METHOD FOR CHARACTERIZING THE SAME” (Council of Scientific & Industrial Research, priority 2018, published 2020).
